{"source": "patent US20250367251A1", "about": "“SKELETON PROTECTION METHOD USING PEPTIDE” (Pell Bio-Med Technology Co., Ltd., priority 2024, published 2025)", "key": {"SW982 synoviocytes": {"test_system": "SW982 synoviocytes", "assay": "Cell viability test (CCK-8) of SW982 synoviocytes", "assay_type": "cell-based", "description": "Owing to the restricted lifespan of primary rheumatoid arthritis fibroblast-like synoviocytes (RA-FLS), the fibroblast-like synoviocytes (FLS) cell line SW982 synoviocytes (hereinafter referred to as SW982 cells) are well accepted as a useful in vitro model for studying the pathogenesis of RA. In short, SW982 cells were seeded in a 96-well plate at a cell density of 6,000 cells per well. After the cells were treated in the following groups, the effect of each treatment group on the viability of SW982 cells was tested by means of the cell proliferation detection kit (cell counting kit-8, CCK8; Elabscience, Catalog No: E-CK-A361) according to the manufacturer's manual. Said treatment groups were as follows: (1) Different concentrations of the peptide of SEQ ID NO: 1: SW982 cells were treated with the L15 culture medium containing 10^−6, 10^−7, 10^−8, 10^−9 μM of the peptide of SEQ ID NO: 1 for 24 hours; (2) IL-1β stimulation group: SW982 cells were stimulated with the culture medium containing 1 ng/mL IL-1β for 24 hours to simulate the inflammatory synoviocytes of rheumatoid arthritis; (3) Co-treatment group: SW982 cells were treated with culture medium containing 10^−9 μM of the peptide of SEQ ID NO: 1 and 1 ng/mL of IL-1β for 72 hours. The SW982 cells in said treatment groups were all cultured in a carbon dioxide-free environment. In addition, SW982 cells were simply cultured in L15 medium for 24 hours, as the control group. This test uses 2-(2-methoxy-4-nitrophenyl)-3-(4-nitrophenyl)-5-(2,4-disulfophenyl)-2H-tetrazolium sodium salt (WST-8) from CCK-8 kit to react with the dehydrogenase in viable cells, so that the color of all treatment groups containing WST-8 turned from pink to orange. By detecting the absorbance value at 450 nm, the activity of dehydrogenase was determined to calculate the number of viable cells."}, "[1]": {"assay": "Preliminary safety profile in AIA mice (body weight changes, observation)", "details": "for body weight changes: oral once daily, after 1- or 2-week treatment (Week 5 or Week 6), compared with Week 4 or vehicle group, P>0.05", "procedure": "This animal study was carried out according to the adjuvant-induced arthritis (AIA) model designed by Academia Sinica, Taipei, Taiwan. Specifically, arthritis induction was performed according to the method described in Gauldie, S. D., McQueen, D. S., Clarke, C. […] In short, this animal study comprised thirty C57BL/6 mice purchased from National Laboratory Animal Center, Taiwan, which were 8 weeks old with a body weight of about 20 to 25 grams. By using a 30-gauge needle mounted on a 100 μl Hamilton syringe, said mice were respectively injected with 5 μg Complete Freund's Adjuvant (CFA) (F5881, Sigma, USA) in the right ankle joint once a week for consecutive 4 times, wherein the first injection was carried out at week 0 (day 0), and said mice were anesthetized and maintained with 2% isoflurane during the injection. The AIA model can induce long-term inflammation and swelling in unilateral anterior ankle joints in C57BL/6 mice, thereby simulating the clinical long-term chronic pain of patients with rheumatoid arthritis.\nAfter CFA induction, said mice were weekly weighted and scored with rheumatoid arthritis score estimation (data not shown) according to Hsieh, W. S., et al. (2017). […] The mice were assigned to 5 groups: (1) vehicle group, (2) P1 group (provided with 1 mg/kg/day peptide of SEQ ID NO: 1), (3) P3 group (provided with 3 mg/kg/day peptide of SEQ ID NO: 1), (4) P10 group (provided with 10 mg/kg/day peptide of SEQ ID NO: 1), and (5) T group (provided with 12.4 mg/kg/day tofacitinib). Said animal grouping was based on the rheumatoid arthritis scores by a random sampling mode. The drug administration from Week 4 (Day 28) to Week 6 (Day 42) was as follows: said mice received once-daily oral dosing (gavage) of 5 μL/g of body weight (bw) of a solution comprising: (1) the peptide of SEQ ID NO: 1 (1 mg/kg bw, 3 mg/kg bw or 10 mg/kg bw, dissolved in water) in P1, P3 and P10 group, respectively, (2) tofacitinib (12.4 mg/kg bw, dissolved with 0.5% carboxymethylcellulose aqueous solution) in T group, and (3) water in vehicle group. Said mice were sacrificed on Day 45. […]"}, "RAW264.7 cells": {"test_system": "RAW264.7 cells", "assay": "Bone resorption assay (RANKL-induced, CaP-coated plate pit area)", "assay_type": "cell-based", "details": "100 μM with 100 ng/ml RANKL, 7 days, p<0.001 vs RANKL group", "description": "This test used RANKL (receptor activator of nuclear factor kappa-B ligand) as an inducer of osteoclastic differentiation to detect whether the peptide of SEQ ID NO: 1 could inhibit osteoclast resorptive function induced by RANKL in vitro, and comprised three groups: control group, RANKL group and treatment group.\nFirst, RAW264.7 cells were seeded in a calcium phosphate (CaP)-coated 96-well with a density of 2×10^3 cells per well. RAW264.7 is a macrophage cell line, and RAW264.7 cells can differentiate into an osteoclast. The cells of all groups were cultivated for 7 days according to the manufacturer's instructions of Bone Resorption assay kit (Cosmo Bio). The differences between control group, RANKL group and treatment group were as follows: • (1) Control group: neither RANKL nor the peptide of SEQ ID NO: 1 was provided to RAW264.7 cells during a 7-day incubation period. • (2) RANKL group: RANKL in a concentration of 100 ng/ml was provided to RAW264.7 cells at Day 1 and incubated for 7 days. • (3) Treatment group: RANKL in a concentration of 100 ng/ml and the peptide of SEQ ID NO: 1 in a concentration of 100 μM were simultaneously provided to RAW264.7 cells at Day 1 and incubated for 7 days.\nAfter the 7-day incubation period, all wells of all groups were washed with 0.2 ml to 0.5 ml of 5% sodium hypochlorite to remove the cells adhered to the surface. […]"}, "[2]": {"test_system": "adjuvant-induced arthritis (AIA) model in C57BL/6 mice", "assay": "Adjuvant-induced arthritis (AIA) model, micro-CT of calcaneus bone (cortical surface, bone mineral density)", "assay_type": "in vivo", "from_the_text": "Scientific reports, 7(1), 8870. […] Said mice were sacrificed on Day 45.\nEach mouse was anesthetized (2.5% isoflurane, 1.0 L/min air) and the anesthetic gas was maintained during the scanning. The mouse was subjected to lay on one side on the carbon fiber half-tube bed while kept anesthetized in the micro-CT scanner (Skyscan 1076), and the right hindpaw was positioned on a cylindrical shape styrofoam holder. The mouse's paw was immobilized at the scanning midline of the scanner to eliminate any undesirable movement of the paw.\nSettings for the micro-CT scanner (SkyScan-1076; Bruker micro CT, Belgium) were as follows: isotropic voxel size: 9 μm, tube voltage: 49 kV, current: 167 μA, Al filter: 0.5 mm, and 180° scan with 0.6° rotation step […] with frame averaging of 3. Subsequently, micro CT projections were back projection-reconstructed using the NRecon software (NReconServer64 bit, Bruker, MicroCT, Belgium) and volume-rendered and visualized in 3D with the CTVox software (Bruker, MicroCT, Belgium). The images of calcaneus bone were segmented and analyzed using the CTAn software (Bruker, MicroCT, Belgium).\nGraphPad Prism 9.3.1 (GraphPad Software, USA) was used for statistical analyses and graphing. Data are presented as mean±standard deviation. The level of statistical significance was set at 5% (P<0.05) for all analyses. Data analysis of the indexes derived from the μCT images of calcaneus bone of mice was carried out, for example, One-way RM ANOVA (One-way Repeated Measures Analysis of Variance) with Tukey's post hoc test was used for data analysis of bone mineral density.\nThe observation time window of μCT scanning was set before AIA induction (Week 0), at the end of induction (Week 4), and after 1 or 2 weeks' treatment (i.e., Week 5 and Week 6). According to FIG. 1A and FIG. 1B, obviously, the surface integrity of the calcaneus bone was disturbed at Week 4 (the end of induction and prior to treatment), manifested as unevenness of the cortical bone (dashed line circle, Week 4 vs Week 0)."}, "SW982 cells": {"test_system": "SW982 cells", "assay": "SW982 cell migration measurement (wound healing experiment)", "assay_type": "cell-based", "details": "10^−7 to 10^−5 μM, 24 h", "from_the_text": "It is known that fibroblast-like synoviocytes secrete inflammatory cytokines, chemokines, and matrix metalloproteinases (MMPs) and induce cell migration and invasion to damage joints and cartilage. We next examined the effect of the peptide of SEQ ID NO: 1 on SW982 cell migration through a conventional wound healing experiment. Specifically, a Culture-Insert 2 Well (ibidi) in which two cell culture reservoirs were separated by a 500 μm wall was placed on a cell culture plate surface. Both reservoirs were filled with cells suspension containing L15 culture medium and 4×10^4 SW982 cells to allow cell growth in the designated areas. After appropriate cell attachment of all SW982 cells, the Culture-Insert 2 Well was removed to create a cell-free gap of approximately 500 μm. The cell monolayer was washed with PBS buffer to remove detached cells and debris. The SW982 cells were incubated with the peptide of SEQ ID NO: 1 (10^−5, 10^−6, 10^−7 μM) in L15 culture medium or with L15 culture medium only (as control group) for 24 h in a carbon dioxide-free environment. By using direct microscopic visualization, a reference point at the bottom was created in each field, and the image of the remaining cell-free area in the identical field shot immediately after 24 h-treatment of the peptide of SEQ ID NO: 1 was measured to analyze cell migration and wound healing rates. […]"}}, "note": "Non-standard residues stand in square brackets, D forms with d. Residues, ends and D or L forms follow the SMILES beside them. pGlu = O=C1CC[C@@H](C(=O)O)N1"}
{"compound": "IL-1β: cytokine used to stimulate SW982 cells to simulate the inflammatory synoviocytes of rheumatoid arthritis [reference compound]", "values": [{"measurement": "proliferation of SW982 cells", "setting": "SW982 synoviocytes; 1 ng/mL, 24 h", "value": "dramatically enhanced the proliferation of SW982 cells"}]}
{"compound": "CC(C)[C@H](NC(=O)[C@H](C)NC(=O)[C@@H](NC(=O)[C@H](CCC(=O)O)NC(=O)[C@@H]1CCC(=O)N1)[C@@H](C)O)C(=O)N[C@@H](CO)C(=O)N[C@@H](CO)C(=O)N[C@@H](Cc1c[nH]cn1)C(=O)N[C@@H](CCC(=O)O)C(=O)N[C@@H](CCC(N)=O)C(=O)N[C@@H](CC(=O)O)C(=O)O", "note": "[peptide of SEQ ID NO: 1, Glp Glu Thr Ala Val Ser Ser His Glu Gln Asp] ([pGlu]ETAVSSHEQD-OH)", "values": [{"measurement": "IL-1β-induced proliferation of SW982 cells", "setting": "SW982 synoviocytes; 10^−9 μM with 1 ng/mL IL-1β, 72 hours", "value": "significantly suppress the IL-1β-induced proliferation of SW982 cells"}, {"measurement": "proliferation of SW982 cells", "setting": "SW982 synoviocytes; 10^−9 to 10^−6 μM, 24 hours", "value": "effectively inhibit the proliferation of SW982 cells"}, {"measurement": "observation of treated mice (signs of toxicity)", "setting": "[1]; oral once daily Week 4 to Week 6", "value": "no signs of irritability, loss of vigor, or any skin or hair changes"}, {"measurement": "body weight changes", "setting": "[1]", "value": "no significant difference in body weight changes"}, {"measurement": "pit area (calcium phosphate resorption) relative to RANKL group (one-fold)", "setting": "RAW264.7 cells", "value": "about 0.5 fold"}, {"measurement": "bone contour / cortical surface of calcaneus bone (micro-CT)", "setting": "[2]; 1 mg/kg oral once daily, Week 4 to Week 6", "value": "no benefits in restoring the bone contour"}, {"measurement": "bone mineral density (BMD) of calcaneus bone", "setting": "[2]; 1 mg/kg oral, 1- or 2-week treatment, Week 5/6 vs Week 4, P>0.05", "value": "no significant changes in BMD"}, {"measurement": "bone contour / cortical surface of calcaneus bone (micro-CT)", "setting": "[2]; 3 mg/kg oral once daily, Week 4 to Week 6", "value": "no benefits in restoring the bone contour"}, {"measurement": "bone mineral density (BMD) of calcaneus bone", "setting": "[2]; 3 mg/kg oral, 1- or 2-week treatment, Week 5/6 vs Week 4, P>0.05", "value": "no significant changes in BMD"}, {"measurement": "bone contour / cortical surface of calcaneus bone (micro-CT)", "setting": "[2]; 10 mg/kg oral once daily for 2 weeks, Week 6 vs Week 4", "value": "much smoother cortical surfaces with fewer spiky projections of calcaneus bone"}, {"measurement": "bone mineral density (BMD) of calcaneus bone", "setting": "[2]; 10 mg/kg oral, after 1-week treatment", "value": "no increase in BMD"}, {"measurement": "bone mineral density (BMD) of calcaneus bone", "setting": "[2]; 10 mg/kg oral, after 2 week treatment, Week 6 vs Week 4, P<0.05", "value": "significant increases in BMD"}, {"measurement": "lateral migration of SW982 cells", "setting": "SW982 cells", "value": "significantly reduced the lateral migration of SW982 cells"}]}
{"compound": "C[C@@H]1CCN(C(=O)CC#N)C[C@@H]1N(C)c1ncnc2[nH]ccc12", "note": "[Tofacitinib, reference compound]", "values": [{"measurement": "body weight changes", "setting": "[1]", "value": "no significant difference in body weight changes"}, {"measurement": "bone mineral density (BMD) of calcaneus bone", "setting": "[2]; 12.4 mg/kg/day oral, 1- or 2-week treatment, Week 5/6 vs Week 4, P>0.05", "value": "neither 1- nor 2-week treatment of Tofacitinib was able to revert the BMD decrement"}, {"measurement": "bone contour / cortical surface of calcaneus bone (micro-CT)", "setting": "[2]; 12.4 mg/kg/day oral, Week 6 vs Week 4", "value": "did not reduce the extent of surface roughness or the distortion of the bone contour"}]}
